{"source": "patent US10869938B2", "about": "“Magnetic resonance imaging” (1C TARGETS AS, priority 2007, dated 2020)", "origin": "cited, not measured here", "system": "healthy myocardial cells", "conditions": "healthy individuals", "note": "Where two headings read alike, the source gives them in different places."}
{"smiles": "Cc1ncc(COP(=O)(O)O)c(CN(CCN(CC(=O)[O-])Cc2c(COP(=O)(O)O)cnc(C)c2O)CC(=O)[O-])c1O.[Mn+2]", "note": "[MnDPDP, manganese (II) chelate of N,N′-bis-(pyridoxal-5-phosphate)-ethylenediamine-N,N′-diacetic acid]", "values": [{"measurement": "manganese tissue concentration versus time curve", "setting": "5 minute infusion", "value": "biphasic curve"}, {"measurement": "manganese tissue concentration versus time curve", "setting": "30 minute infusion", "value": "increased steadily"}]}
